As usually defined, the IC50 is the concentration that inhibits the measured activity by half.

What all share (assay type): biochemical
The target of assay [1] is lipase. Nature of the assay: lipase assay, 384-well SPA format (YSi SPA beads). Particulars: 30 nM lipase, room temperature, 60 minutes, read-out: IC50 inhibition of lipase activity. The procedure:
(§1) 384-well SPA and LEADseeker formats. 180 nM lipase substrate was added to streptavidin coated YSi beads at 10 mg/ml and 10% (v/v) Triton™ X-100 in the ratio of 2:3:1. Assays contained […] substrate precoated streptavidin YSi SPA beads or streptavidin yttrium oxide (YOx) LEADseeker beads (Amersham Pharmacia Biotech) (24 nM lipase substrate, 50 μg beads, 0.67% (v/v) Triton X-100), 30 nM lipase and assay buffer in a volume of 25 μl. In ‘no enzyme’ controls, approximately 6000 SPA cpm and 600 IOD's (Integrated Optical Density) were obtained. After incubation for 60 minutes at room temperature with agitation, assays were stopped by the addition of 25 μl 0.1M sodium citrate/citric acid, pH 4.0 and counted on either on a TopCount microplate scintillation counter (Packard Instruments Co., Meriden, Conn., USA) or imaged on LEADseeker (Amersham Pharmacia Biotech).
(§2) Miniaturization of the lipase assay to 384-well format using SPA and LEADseeker. Using a reduced assay volume an enzyme titration was performed with YSi SPA beads and YOx LEADseeker beads (FIG. 5). Different profiles were obtained using the two assay formats and this may be a result of how the substrate is presented on the surface of the two bead types.
(§3) 30 nM lipase was used and assays were incubated at room temperature for 60 minutes.

Assay [2] deals with lipase. As to the kind of experiment: lipase assay, 384-well LEADseeker format (YOx LEADseeker beads). Particulars: 30 nM lipase, room temperature, 60 minutes, read-out: IC50 inhibition of lipase activity. The procedure: as §1, §2, §3
Assay [3] deals with lipase. Nature of the assay: lipase assay, 96-well SPA format, 'on bead'. To be noted: YSi beads, 5 nM lipase, room temperature, 60 minutes, read-out: IC50 inhibition of lipase activity. Here is the method: 96-well SPA format. Using an ‘on bead’ assay format, 180 nM lipase substrate (i.e. HSL substrate prepared by the method described in Example 1) was added to streptavidin coated yttrium silicate (YSi) beads (Amersham Pharmacia Biotech) at 5 mg/ml and 10% (v/v) Triton™ X-100 in the ratio of 1:3:2. Triton X-100 was added to prevent non-specific binding of the tritiated product to beads. Assays contained 20 μl substrate precoated SPA beads (6 nM lipase substrate, 50 μg beads, 0.67% (v/v) Triton X-100), 5 nM lipase and assay buffer (50 mM Hepes, pH 7.5, 1 mM dithioerythritol (DTE) and 0.001% (v/v) C13E12) in a volume of 100 μl. In ‘no enzyme’ controls, approximately 15000 SPA cpm were obtained. After incubation for 60 minutes at room temperature with agitation, assays were stopped by the addition of 100 μl 0.1M sodium citrate/citric acid, pH 4.0 and counted on a TopCount™ microplate scintillation counter (Packard Instruments Co., Meriden, Conn., USA).
Development of a lipase assay using a 96-well SPA assay format. Enzyme titrations were set up using ‘on’ and ‘off’ bead assay formats. In the ‘off’ bead format, the lipase substrate was not precoated onto SPA beads; instead the beads were added at the same time as the stop solution. […] It is thought that the binding of the substrate to the bead surface produced an artificial membrane environment necessary for optimal enzyme activity (FIG. 2). […]

In the case of `CC[C@@H](C)[C@@H](O)[C@H](C)C(=O)[C@H](C)/C=C(\C)C[C@H](C)[C@@H]1OC(=O)[C@H]1CC` [Ebelactone B], the values for the IC50 at lipase [1], on lipase [2] and on lipase [3] were 32.3 µM, 18.2 µM and 27.5 µM, respectively.

Source of the values: US7026135B2, “Biotin-peg-substrate for a lipase assay” (Amersham Biosciences UK Limited, priority 2000, dated 2006).
